Where two headings read alike, the source gives them in different places.
Legend:
[1] = target: T1, serotonin transporter (Macaca mulatta, UniProt Q9MYX0); test: biochemical; assay type: binding
T1 construct: Each caudate-putamen was homogenized and used separately for dopamine and serotonin transporter assays; from tissue; host or cells: caudate-putamen membranes of adult cynomolgus or rhesus monkey brain
Protocol: The affinities and transporter selectivities of the drugs were assessed in brain tissue of adult cynomolgus or rhesus monkey (Macaca fasicularis or Macaca Mulatta). Caudate-putamen was the source of the dopamine and serotonin transporters. The dopamine transporter affinity was measured with [3H]WIN 35,428 ([3H]CFT), the serotonin transporter was measured with [3H]citalopram and the norepinephrine transporter was measured with [3H]nisoxetine. Affinities of selected compounds were also measured at the human dopamine transporter in HEK-293 cells expressing the human dopamine transporter (hDAT).
Brain tissue was harvested from adult male and female cynomolgus (Macaca fasicularis) or rhesus (Macaca Mulatta) monkeys euthanized in the course of other research or after spontaneous death. Tissue was stored in the brain bank at the New England Regional Primate Research Center at −85° C. The caudate-putamen (approximately 1.5 g) was dissected from coronal sections of brain. Each caudate-putamen was homogenized and used separately for dopamine and serotonin transporter assays. Prior to homogenization, the thalamus from two brains was pooled and membranes were prepared as described previously for norepinephrine transporter assays (Madras et al., Synapse, 22:231–232, 1998; Madras et al., Synapse, 24:340–348, 1996). Briefly, the tissue was homogenized in 10 volumes (w/v) of ice-cold Tris.HCl buffer (50 mM, pH 7.4 at 0–4° C.) and centrifuged at 38,700×g for 20 min in the cold. The resulting pellet was resuspended in 40 volumes of buffer, and the entire wash procedure was repeated twice. The membrane suspension (25 mg original wet weight of tissue/ml) was diluted to 12 mg/ml in buffer just prior to assay and dispersed with a Brinkmanm polytron (setting #5) for 15 sec. […] All experiments were conducted in triplicate and each experiment was repeated in 2–4 individual tissue preparations.
The serotonin transporter was assayed in caudate-putamen membranes using similar assay conditions as for the dopamine transporter. […] The affinity of drugs for the serotonin transporter labeled by [^3H]citalopram (spec. act.: approximately 85 Ci/mmol, NEN) was determined in experiments by incubating tissue with a fixed concentration of [^3H]citalopram and a range of concentrations of drug. Assays were conducted in Tris-HCl buffer containing NaCl (100 mM) and the following constituents: [^3 H]citalopram (1 nM, 0.2 ml), test drug (1 pM–100 TM, 0.2 ml) and tissue (0.2 ml, 3 mg/ml original wet tissue weight). The 2 h incubation (0–4° C.) was initiated by addition of membranes and terminated by rapid filtration over Whatman GF/B glass fiber filters pre-soaked 1 hour in 0.1% polyethyleneimine. The filters were washed three times with 5 ml Tris.HCl buffer (50 mM), and the remaining steps were carried out as described above. Total binding was defined as [^3H]citalopram bound in the presence of ineffective concentrations of unlabeled citalopram (1 pM) or the test compounds. Non-specific binding was defined as [^3H]citalopram bound in the presence of an excess (10 TM) of fluoxetine. Specific binding was the difference between the two values. Cpm were converted to dpm following determination of counting efficiency (>45%) of each vial by external standardization.
Data were analyzed by the EBDA and LIGAND computer software programs (ElsevierBiosoft, U.K.) Final estimates of IC50 and nH values were computed by the EBDA program. Baseline values for the individual drugs were established by computer analysis, using the baseline drugs as a guide. The LIGAND program provided final parameter estimates for the affinity of the radioligand (Kd) by iterative non-linear curve-fitting and evaluation of one- or two-component binding models. LIGAND was used to measure the affinity of the radioligands at the dopamine and serotonin transporter. Graphs (not shown) were produced by the computer software program PRISM, using a one- or two-site competition analysis curve.

[2] = target: T2, dopamine transporter (Macaca fascicularis, UniProt Q9GJT6); test: Inhibition of [3H]WIN 35,428 binding to the dopamine transporter in monkey caudate-putamen
T2 construct: Each caudate-putamen was homogenized and used separately for dopamine and serotonin transporter assays; from tissue; host or cells: caudate-putamen membranes of adult cynomolgus or rhesus monkey brain

[3] = Table 2, affinity at the serotonin transporter, read-out: SERT IC50
[4] = Table 1, [3H]WIN 35,428, monkey caudate-putamen, mean of 3 or more experiments, read-out: DAT IC50
[5] = Table 2, affinity at the dopamine transporter, read-out: DAT IC50
[6] = Table 2, ratio of SERT and DAT IC50 values
[7] = Table 1, [3H]citalopram, monkey caudate-putamen, mean of 3 or more experiments, read-out: SERT IC50
[8] = read-out: IC50, binding potency at the DAT

T2 sequence (Q9GJT6 whole entry): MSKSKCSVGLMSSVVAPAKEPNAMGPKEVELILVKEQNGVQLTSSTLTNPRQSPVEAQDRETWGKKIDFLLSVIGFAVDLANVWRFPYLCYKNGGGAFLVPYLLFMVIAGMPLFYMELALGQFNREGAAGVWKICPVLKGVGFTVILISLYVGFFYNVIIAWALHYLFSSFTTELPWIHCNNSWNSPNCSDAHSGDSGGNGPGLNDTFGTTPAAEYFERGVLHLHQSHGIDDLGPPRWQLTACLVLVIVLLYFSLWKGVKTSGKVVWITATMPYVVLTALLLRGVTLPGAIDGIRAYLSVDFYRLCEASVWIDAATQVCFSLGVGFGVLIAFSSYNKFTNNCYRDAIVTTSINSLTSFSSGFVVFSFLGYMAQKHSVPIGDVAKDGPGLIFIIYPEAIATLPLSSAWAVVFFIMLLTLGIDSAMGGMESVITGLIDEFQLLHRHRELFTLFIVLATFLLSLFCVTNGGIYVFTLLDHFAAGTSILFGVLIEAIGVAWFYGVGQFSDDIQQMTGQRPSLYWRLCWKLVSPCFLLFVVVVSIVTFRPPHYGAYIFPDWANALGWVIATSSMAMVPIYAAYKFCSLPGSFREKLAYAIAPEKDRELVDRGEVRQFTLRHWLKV
T1 sequence (Q9MYX0 whole entry): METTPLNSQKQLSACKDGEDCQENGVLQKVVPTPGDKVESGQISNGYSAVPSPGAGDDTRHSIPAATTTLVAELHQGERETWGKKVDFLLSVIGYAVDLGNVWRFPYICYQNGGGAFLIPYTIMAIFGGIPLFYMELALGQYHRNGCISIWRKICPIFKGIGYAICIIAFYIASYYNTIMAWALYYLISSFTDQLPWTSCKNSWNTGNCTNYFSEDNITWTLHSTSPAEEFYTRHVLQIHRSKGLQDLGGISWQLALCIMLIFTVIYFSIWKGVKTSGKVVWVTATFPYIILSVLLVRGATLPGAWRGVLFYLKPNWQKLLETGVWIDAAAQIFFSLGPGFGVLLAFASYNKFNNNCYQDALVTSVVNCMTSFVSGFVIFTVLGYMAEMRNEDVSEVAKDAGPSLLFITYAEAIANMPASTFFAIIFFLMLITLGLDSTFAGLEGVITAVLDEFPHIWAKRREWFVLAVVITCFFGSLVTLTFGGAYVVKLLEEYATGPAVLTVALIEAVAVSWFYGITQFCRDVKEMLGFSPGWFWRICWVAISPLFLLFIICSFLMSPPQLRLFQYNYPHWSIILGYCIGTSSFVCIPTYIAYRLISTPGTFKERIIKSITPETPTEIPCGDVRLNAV

SMILES	IC50 [1, 3] [nM]	IC50 [2, 5] [nM]	DAT/SERT RATIO [2, 6]	IC50 [1, 7] [nM]	also measured
COC(=O)C(c1ccc(Cl)c(Cl)c1)C1CCCCO1 (centres unmarked) [Compound 0-1730, 2-(3,4-Dichlorophenyl)tetrahydropyran-2-yl acetic acid methyl esters]	2180				
N#CC(c1ccc(Cl)c(Cl)c1)C1CCCC1 (stereo not drawn) [Compound 10, α-cyclopentyl-3,4-dichlorobenzylcyanide]		128	78		IC50 [2, 4]: 128 nM
COC(=O)C(c1ccc(Cl)c(Cl)c1)C1CCCCO1 (centres unmarked) [Compound 0-1731, 2-(3,4-Dichlorophenyl)tetrahydropyran-2-yl acetic acid methyl esters]	7800	286 ± 10.5			
O=C(O)[C@H](c1ccc(Cl)c(Cl)c1)[C@H]1CCCCO1					melting point: 139.1 to 140.1 °C
COC(=O)[C@@H](c1ccc(Cl)c(Cl)c1)[C@@H]1CCCCO1 [Compound O-1794, 2S-(3,4-Dichlorophenyl)tetrahydropyran-2′S-yl acetic acid methyl ester]				1660	IC50 [2]: 33.9 ± 8.6 nM
CO[C@@H]1C[C@@H](c2ccc(Cl)c(Cl)c2)c2ccccc21 (relative stereo) [Compound 0-1630, Trans-1-Methoxy-3-(3,4-dichlorophenyl)indans]	334 ± 100	60 ± 23	6		
O=C(O)[C@H](c1ccc(Cl)c(Cl)c1)C1CCCCO1 (some centres unmarked)					melting point: 124.1 to 125.1 °C
O=C(O)C(c1ccc(Cl)c(Cl)c1)C1CCCCO1 (centres unmarked)					melting point: 138.9 to 139.9 °C
N#CC(c1ccc(Cl)c(Cl)c1)C1CCCCC1 (stereo not drawn) [Compound 8, α-cyclohexyl-3,4-dichlorobenzylcyanide]	8000	127	63	8000	IC50 [2, 8]: 127 to 146 nM; IC50 ([1]; read-out: IC50, binding potency at the SERT): 8000 to 12000 nM
COC(=O)C(c1ccccc1)C1CCCCN1 (centres unmarked) [Methylphenidate, reference compound]					DAT/SERT RATIO [2]: 5,800; IC50 [2]: 17.2 ± 2.04 nM; IC50 [1]: > 100000 nM
CO[C@@H]1C[C@H](c2ccc3ccccc3c2)c2ccccc21 (relative stereo) [Compound 0-1833, Cis-3-(2-Naphthyl)-0-methylindanol]	422 ± 38	189 ± 12	2		
COC(=O)[C@@H](c1ccc(Cl)c(Cl)c1)[C@H]1CCCCO1 [Compound O-1793, 2S-(3,4-Dichlorophenyl)tetrahydropyran-2′R-yl acetic acid methyl ester]	> 10000			> 10000	
COC(=O)[C@H](c1ccc(Cl)c(Cl)c1)[C@@H]1CCCCO1 [Compound O-1792, 2R-(3,4-Dichlorophenyl)tetrahydropyran-2′S-yl acetic acid methyl ester]	> 10000			> 10000	
CO[C@@H]1C[C@H](c2ccc(Cl)c(Cl)c2)c2ccccc21 (relative stereo) [Compound 0-1617, Cis-1-Methoxy-3-(3,4-dichlorophenyl)indans]	> 4100	130 ± 49.7	>32		
COC(=O)[C@H](c1ccc(Cl)c(Cl)c1)[C@H]1CCCCO1 [Compound O-1783]	> 10000			> 10000	IC50 [2]: 17 ± 1.3 nM
COC(=O)C(c1ccc2ccccc2c1)C1CCCCO1 (centres unmarked) [Naphthyl mixture, (2-Naphthyl)-(tetrahydropyran-2-yl) acetic acid methyl esters]	5000	300	16.7	5000	IC50 [2, 4]: 300 nM; IC50 ([2]; binding to the DAT, read-out: DAT IC50): 300 nM; IC50 [2, 8]: 300 nM; IC50 ([1]; binding to the SERT, read-out: SERT IC50): 5000 nM
CO[C@@H]1C[C@@H](c2ccc3ccccc3c2)c2ccccc21 (relative stereo) [Compound 0-1925, Trans-1-Methoxy-3-(2-naphthyl)indans]	136 ± 4.5	213 ± 27	0.6		

Source: patent US7026516B2 (priority 2000, dated 2006)
